How the values were obtained:
Format in all cases: in vivo
mosquitoes [1] = test: Mosquito trap catch, Mosquito Magnet Pro units, Florida; conditions: release rates approx. 60 mg/day and 500 mg/day; 10-18 test days
Protocol: In tests performed in Florida using Mosquito Magnet Pro units, (R)-(+)-1-octyn-3-ol was compared with racemic 1-octyn-3-ol and (S)-(-)-1-octyn-3-ol at release rates of approximately 60 mg/day and 500 mg/day. The lures were rotated among the traps and compared to the same traps with no lure, all relative to a control trap. The (S)-(-)-1-octyn-3-ol caught an average of 39% more mosquitoes relative to the control than the traps when no lure was used (18 test days), the racemic 1-octyn-3-ol caught an average of 240% more mosquitoes than did no lure (10 test days), and the (R)-(+)-1-octyn-3-ol caught an average of 334% more mosquitoes than the traps with no lure (16 test days).

mosquitoes [2] = test: Mosquito trap catch with wax lure and CO2, model 1012 traps, Connecticut; conditions: wax lure, approx. 0.17 mg/hr release, CO2 approx. 140 ml/minute, average of four three-day cycles
Protocol: The following tests were conducted in Connecticut in September 2004. Mosquito traps model 1012 manufactured by John W. Hock Company in Gainesville, Florida were used in these experiments. The traps use a stream of CO2 directed in the vicinity of a collection bag, with a fan used to blow mosquitoes into the bag. The light supplied with the trap was turned off. The traps were spaced 65-70 feet apart at the edge of a wetland in Danbury, Conn., at least 25 feet from any buildings. The (R) and (S)-1-octyn-3-ol was incorporated into a wax lure of the type manufactured by BioSensory, Inc. and placed near a stream of CO2 which was being released at a rate of approximately 140 ml/minute. The traps were operated from approximately 4:00 PM until 9:00 AM the next day. Daytime temperatures were 70-75° F. during the trials. Average weight loss from the wax lures during the test was approximately 4 mg/day, or 0.17 mg/hr. Three traps were used, with either (R)-1-Octyn-3-ol, (S)-1-Octyn-3-ol, or no treatment, rotated among the traps over a three-day cycle. Four complete cycles were performed and the results for each treatment were averaged.
The traps with no attractant were considered as the baseline catch of mosquitoes and the results of the catches with the isomers were compared to this baseline value.

mosquitoes [3] = test: Mosquito trap catch, Mosquito Magnet Liberty traps, Danbury, Conn.; conditions: porous frit, 1 gram, releasing approx. 1 mg/h, rotated twice among four traps over eight days
Protocol: Tests were conducted with the Mosquito Magnet Liberty model manufactured by American Biophysics Corp. The traps were spaced 65-70 feet apart at the edge of a wetland in Danbury, Conn., at least 25 feet from any buildings. 1 gram of test chemical was added to a clean porous frit of the type normally used in the trap, releasing approximately 1 mg/h. (R)-(+)-1-octyn-3-ol, (S)-(-)-1-octyn-3-ol, (R)-(-)-1-octen-3-ol, and racemic 1-octen-3-ol were rotated twice among four traps over eight days, and the results for each attractant were compared.

SMILES	average more mosquitoes caught than the traps with no lure, relative to a control trap (mosquitoes [1])	more mosquitoes captured than the baseline (traps with no attractant) (mosquitoes [2])	more mosquitoes caught than the trap with the 50:50 racemic mixture of 1-octen-3-ol (mosquitoes [3])	less mosquitoes caught than the trap with the 50:50 racemic mixture of 1-octen-3-ol (mosquitoes [3])
C#CC(O)CCCCC (racemic) [racemic 1-octyn-3-ol, 1-octyn-3-ol]	240%	–	–	–
C#C[C@H](O)CCCCC [(R)-(+)-1-octyn-3-ol]	334%	120%	34%	–
C#C[C@@H](O)CCCCC [(S)-(-)-1-octyn-3-ol]	39%	65%	–	23%

From patent US20060193880A1, “Method and compositions for attracting mosquitoes employing (R)-(+)-isomers of 1-alkyn-3-ols” (Bedoukian Research, Inc., priority 2005, published 2006)
